Results from patent US11773075B2, “Modulators of p97 AAA ATPase activity” (University of Pittsburgh—Of the Commonwealth System of …, priority 2017, dated 2023).

Molecular target: p97 (Homo sapiens, UniProt P55072)
Experiment: BioMol Green ATPase assay
Format: biochemical
Details: 200 μM ATP, read-out: P97 Biomolgreen
From the text: Biomol Green (Enzo) is a […] from a biochemical reaction. Because of its high sensitivity, the assay is suitable for monitoring enzyme activities at very early substrate conversions requiring very low amount of enzymes. […] The assay procedure used may be the same as in Zhang et al., “Altered cofactor regulation with disease-associated p97/VCP mutations,” Proc. Natl. Acad. Sci. USA, 112(14), E1705-E1714 (2015).
The BioMol Green ATPase assay procedure used was that which was disclosed in Zhang, et al., “Altered cofactor regulation with disease-associated p97/VCP mutations,” Proc. Natl. Acad. Sci. USA, 112(14), E1705-E1714 (2015). The following Table IV provides relevant results. The compound number correlates to the numbered compounds in Table III. Compounds also show activity in a cell-based assay such as the ubiquitin assay (assay as described in, e.g., (1) Dantuma et al., “Short-lived green fluorescent proteins for quantifying ubiquitin/proteasome-dependent proteolysis in living cells,” Nat. Biotechnol. 2000, 18, 538-543; and (2) WO 2010003908).

Chain of p97 (P55072 whole entry): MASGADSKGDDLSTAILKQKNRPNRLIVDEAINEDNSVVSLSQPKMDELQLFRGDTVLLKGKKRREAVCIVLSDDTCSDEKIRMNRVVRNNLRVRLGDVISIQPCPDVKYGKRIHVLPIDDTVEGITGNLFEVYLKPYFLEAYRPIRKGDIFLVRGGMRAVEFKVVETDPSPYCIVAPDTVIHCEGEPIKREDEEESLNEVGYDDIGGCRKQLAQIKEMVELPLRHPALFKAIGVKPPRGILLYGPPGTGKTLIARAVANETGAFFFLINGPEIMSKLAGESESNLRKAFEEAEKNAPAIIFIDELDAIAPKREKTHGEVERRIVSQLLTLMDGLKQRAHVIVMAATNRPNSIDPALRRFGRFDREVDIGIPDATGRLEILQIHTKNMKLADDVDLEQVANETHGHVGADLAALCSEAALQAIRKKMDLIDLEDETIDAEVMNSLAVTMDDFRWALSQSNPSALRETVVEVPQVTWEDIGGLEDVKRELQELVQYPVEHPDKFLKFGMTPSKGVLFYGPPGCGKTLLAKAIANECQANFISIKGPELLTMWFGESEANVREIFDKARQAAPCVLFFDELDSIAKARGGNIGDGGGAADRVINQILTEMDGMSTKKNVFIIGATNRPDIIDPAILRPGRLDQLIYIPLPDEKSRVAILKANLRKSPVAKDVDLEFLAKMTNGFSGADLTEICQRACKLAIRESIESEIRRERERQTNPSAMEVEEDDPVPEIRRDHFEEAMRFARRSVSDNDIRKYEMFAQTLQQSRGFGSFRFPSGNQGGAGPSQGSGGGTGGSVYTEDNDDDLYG

**Q.** For `Cc1cc(OCc2cnc(SC(C)C)n2-c2cccnc2)ccc1C#CCOC(=O)NCCN1CCN(C(C)C)CC1` [Compound 5], which IC50 is on record?
**A.** Its IC50 is 100 nM.

**Q.** For `CCS(=O)(=O)c1ncc(COc2ccc(C#CCO)c(C)c2)n1-c1cccnc1` [Compound 16, 3-(4-((2-(Ethylsulfonyl)-1-(pyridin-3-yl)-1H-imidazol-5-yl)methoxy)-2-methylphenyl)prop-2-yn-1-ol], which IC50 is on record?
**A.** The IC50 was over 6700 nM.

**Q.** With `CC(=O)NCC#Cc1ccc(OCc2cnc(SC3C=CCCC3)n2-c2cccnc2)cc1C` (stereo not shown) [Compound 8, N-(3-(4-((2-(Cyclohex-2-en-1-ylthio)-1-(pyridin-3-yl)-1H-imidazol-5-yl)methoxy)-2-methylphenyl)-prop-2-yn-1-yl)acetamide] as the molecule, how does the IC50 read?
**A.** The IC50 was 60 nM.

**Q.** Which IC50 does the source give for `Cc1cc(OCc2cnc(SC3C=CCCC3)n2-c2cccnc2)ccc1-c1ccc(S(C)(=O)=O)cc1` (stereo not shown) [Compound 31] here?
**A.** The IC50 was 54 nM.

**Q.** For `CN1CCC(NC(=O)OCC#Cc2cc(F)c(OCc3cnc(SC4C=CCCC4)n3-c3cccnc3)cc2F)CC1` (stereo not shown) [Compound 36], which IC50 is on record?
**A.** The IC50 was 11 nM.

**Q.** For `Cc1cc(OCc2cnc(SC3C=CCCC3)n2-c2cccnc2)ccc1C#CCOC(=O)NC(C)C` (stereo not shown) [Compound 14], which IC50 is on record?
**A.** Its IC50 is 27 nM.

**Q.** Which IC50 does the source give for `Cc1cc(OCc2c(Cl)nc(SC3C=CCCC3)n2-c2cccnc2)ccc1-c1ccc(S(C)(=O)=O)cc1` (stereo not shown) [Compound 32] here?
**A.** The IC50 was 37 nM.

**Q.** For `[2H]C1([2H])C([2H])([2H])C([2H])([2H])C([2H])(Sc2nc(Br)c(COc3ccc(C#CCO)c(C)c3)n2-c2cccnc2)C1([2H])[2H]` [Compound 20], which IC50 is on record?
**A.** The IC50 was 29 nM.

**Q.** With `Cc1cc(OCc2c(C(N)=O)nc(SC3CCCC3)n2-c2cccnc2)ccc1C#CCO` [Compound 25] as the molecule, how does the IC50 read?
**A.** Its IC50 is 50 nM.

**Q.** Which IC50 does the source give for `Cc1cc(OCc2cnc(SC3C=CCCC3)n2-c2cccnc2)ccc1C#CCNC1CCN(C)CC1` (stereo not shown) [Compound 9, N-(3-(4-((2-(cyclohex-2-en-1-ylthio)-1-(pyridin-3-yl)-1H-imidazol-5-yl)methoxy)-2-methylphenyl)prop-2-yn-1-yl)-1-methylpiperidin-4-amine] here?
**A.** Its IC50 is 56 nM.

**Q.** Which IC50 does the source give for `[2H]C1([2H])C([2H])([2H])C([2H])([2H])C([2H])(Sc2ncc(COc3cc(F)c(C#CCOC(=O)NC4CCN(C)CC4)c(F)c3)n2-c2cccnc2)C1([2H])[2H]` [Compound 39] here?
**A.** Its IC50 is 19 nM.

**Q.** Which IC50 does the source give for `Cc1cc(OCc2c(C#N)nc(SC3CCCC3)n2-c2cccnc2)ccc1C#CCO` [Compound 22] here?
**A.** The IC50 was 60 nM.

**Q.** With `[2H]C1([2H])C([2H])([2H])C([2H])([2H])C([2H])(Sc2ncc(COc3cc(Cl)c(C#CCOC(=O)NC4CCN(C)CC4)cc3Cl)n2-c2cccnc2)C1([2H])[2H]` [Compound 44] as the molecule, how does the IC50 read?
**A.** Its IC50 is 60 nM.

**Q.** For `[2H]C1([2H])C([2H])([2H])C([2H])([2H])C([2H])(Sc2nc(Br)c(COc3ccc(C#CCOC(=O)NCCN4CCN(C(C)C)CC4)c(C)c3)n2-c2cccnc2)C1([2H])[2H]` [Compound 21], which IC50 is on record?
**A.** The IC50 was 17 nM.

**Q.** For `Cc1cc(OCc2c(C#CCO)nc(SC3CCCC3)n2-c2cccnc2)ccc1C#CCO` [Compound 23, 3-(4-((2-(Cyclopentylthio)-4-(3-hydroxyprop-1-yn-1-yl)-1-(pyridin-3-yl)-1H-imidazol-5-yl)methoxy)-2-methylphenyl)prop-2-yn-1-ol], which IC50 is on record?
**A.** The IC50 was 30 nM.

**Q.** With `Cc1cc(OCc2c(Br)nc(SC3C=CCCC3)n2-c2cccnc2)ccc1C#CCO` (stereo not shown) [Compound 12] as the molecule, how does the IC50 read?
**A.** The IC50 was 50 nM.

**Q.** Which IC50 does the source give for `COCCNC(=O)OCC#Cc1ccc(OCc2cnc(SC3C=CCCC3)n2-c2cccnc2)cc1C` (stereo not shown) [Compound 3] here?
**A.** The IC50 was 39 nM.

**Q.** With `[2H]C1([2H])C([2H])([2H])C([2H])([2H])C([2H])(Sc2ncc(COc3cc(F)c(C#CCO)cc3F)n2-c2cccnc2)C1([2H])[2H]` [Compound 38] as the molecule, how does the IC50 read?
**A.** Its IC50 is 19 nM.

**Q.** For `Cc1cc(OCc2cnc(SC3C=CCCC3)n2-c2cccnc2)ccc1C#CCOC(=O)NCCN1CCOCC1` (stereo not shown) [Compound 4], which IC50 is on record?
**A.** Its IC50 is 36 nM.

**Q.** With `[2H]C1([2H])C([2H])([2H])C([2H])([2H])C([2H])(Sc2ncc(COc3ccc(C#CCOC(=O)NC4CCN(C)CC4)c(F)c3)n2-c2cccnc2)C1([2H])[2H]` [Compound 37, 3-(4-((2-((Cyclopentyl-d9)thio)-1-(pyridin-3-yl)-1H-imidazol-5-yl)methoxy)-2-fluorophenyl)prop-2-yn-1-yl (1-methylpiperidin-4-yl)carbamate] as the molecule, how does the IC50 read?
**A.** Its IC50 is 17 nM.

**Q.** For `Cc1cc(OCc2cnc(SC3C=CCCC3)n2-c2cccnc2)ccc1Cl` (stereo not shown) [Compound 34], which IC50 is on record?
**A.** Its IC50 is 160 nM.

**Q.** Which IC50 does the source give for `Cc1cc(OCc2cnc(SC3C=CCCC3)n2-c2cccnc2)ccc1C#CCO` (stereo not shown) [Compound 1, 3-(4-((2-(Cyclohex-2-en-1-ylthio)-1-(pyridin-3-yl)-1H-imidazol-5-yl)methoxy)-2-methylphenyl)prop-2-yn-1-ol] here?
**A.** The IC50 was 37 nM.

**Q.** Which IC50 does the source give for `Cc1cc(OCc2cnc(SC3C=CCCC3)n2-c2cccnc2)ccc1C#CCOC(=O)NCCN1CCN(C)CC1` (stereo not shown) [Compound 11] here?
**A.** Its IC50 is 20 nM.

**Q.** With `Cc1cc(OCc2cnc(SC3C=CCCC3)n2-c2cccnc2)ccc1C#CCOC(=O)NC1CCOCC1` (stereo not shown) [Compound 2] as the molecule, how does the IC50 read?
**A.** The IC50 was 34 nM.

**Q.** With `COC(=O)/C=C/c1nc(SC2CCCC2)n(-c2cccnc2)c1COc1ccc(C#CCO)c(C)c1` [Compound 27, Methyl (E)-3-(2-(cyclopentylthio)-5-((4-(3-hydroxyprop-1-yn-1-yl)-3-methylphenoxy)methyl)-1-(pyridin-3-yl)-1H-imidazol-4-yl)acrylate] as the molecule, how does the IC50 read?
**A.** Its IC50 is 110 nM.

**Q.** Which IC50 does the source give for `Cc1cc(OCc2c(Cl)nc(SC3C=CCCC3)n2-c2cccnc2)ccc1C#CCO` (stereo not shown) [Compound 18] here?
**A.** Its IC50 is 34 nM.

**Q.** For `Cc1cc(OCc2cnc(SC3C=CCCC3)n2-c2cccnc2)ccc1C#CCOC(=O)NC1CCN(C)CC1` (stereo not shown) [Compound 15], which IC50 is on record?
**A.** The IC50 was 14 nM.

**Q.** Which IC50 does the source give for `Cc1cc(OCc2c(C(C)(C)O)nc(SC3CCCC3)n2-c2cccnc2)ccc1C#CCO` [Compound 28, 3-(4-((2-(Cyclopentylthio)-4-(2-hydroxypropan-2-yl)-1-(pyridin-3-yl)-1H-imidazol-5-yl)methoxy)-2-methylphenyl)prop-2-yn-1-ol] here?
**A.** The IC50 was 250 nM.

**Q.** For `[2H]C1([2H])C([2H])([2H])C([2H])([2H])C([2H])(Sc2ncc(COc3cc(Cl)c(C#CCO)cc3Cl)n2-c2cccnc2)C1([2H])[2H]` [Compound 45], which IC50 is on record?
**A.** Its IC50 is 200 nM.

**Q.** For `Cc1cc(OCc2cnc(CC3CCCC3)n2-c2cccnc2)ccc1C#CCOC(=O)NC1CCN(C)CC1` [Compound 26], which IC50 is on record?
**A.** Its IC50 is 50 nM.

**Q.** Which IC50 does the source give for `COCCOCC#Cc1ccc(OCc2cnc(SC3C=CCCC3)n2-c2cccnc2)cc1C` (stereo not shown) [Compound 7] here?
**A.** The IC50 was 110 nM.

**Q.** Which IC50 does the source give for `Fc1cc(OCc2cnc(SC3C=CCCC3)n2-c2cccnc2)ccc1Br` (stereo not shown) [Compound 33] here?
**A.** The IC50 was 130 nM.

**Q.** With `Cc1cc(OCc2c(Br)nc(SC3CC3)n2-c2cccnc2)ccc1C#CCOC(=O)N1CCN(C(C)C)CC1` [Compound 19] as the molecule, how does the IC50 read?
**A.** Its IC50 is 57 nM.

**Q.** With `[2H]C1([2H])C([2H])([2H])C([2H])([2H])C([2H])(Sc2ncc(COc3cc(F)c(C#CCO)c(F)c3)n2-c2cccnc2)C1([2H])[2H]` [Compound 43] as the molecule, how does the IC50 read?
**A.** The IC50 was 56 nM.

**Q.** For `[2H]C1([2H])C([2H])([2H])C([2H])([2H])C([2H])(Sc2ncc(COc3cc(F)c(C#CCOC(=O)NC4CCN(C)CC4)cc3F)n2-c2cccnc2)C1([2H])[2H]` [Compound 35], which IC50 is on record?
**A.** The IC50 was 8 nM.

**Q.** Which IC50 does the source give for `CC#Cc1nc(SC2CCCC2)n(-c2cccnc2)c1COc1cc(F)c(C#CCOC(=O)NC2CCN(C)CC2)c(F)c1` [Compound 40] here?
**A.** The IC50 was 20 nM.

**Q.** For `OCC#Cc1c(F)cc(OCc2c(Cl)nc(SC3C=CCCC3)n2-c2cccnc2)cc1F` (stereo not shown) [Compound 42], which IC50 is on record?
**A.** Its IC50 is 46 nM.

**Q.** For `Cc1cc(OCc2c(Br)nc(SC3C=CCCC3)n2-c2cccnc2)ccc1-c1ccc(S(C)(=O)=O)cc1` (stereo not shown) [Compound 30], which IC50 is on record?
**A.** The IC50 was 66 nM.

**Q.** With `Cc1cc(OCc2cnc(SC3C=CCCC3)n2-c2cccnc2)ccc1C#CCNCCN(C)C` (stereo not shown) [Compound 10] as the molecule, how does the IC50 read?
**A.** Its IC50 is 50 nM.

**Q.** Which IC50 does the source give for `CC#Cc1nc(SC2CCCC2)n(-c2cccnc2)c1COc1cc(F)c(C#CCO)c(F)c1` [Compound 41] here?
**A.** Its IC50 is 40 nM.

**Q.** For `Cc1cc(OCc2c(Br)nc(SC3C=CCCC3)n2-c2cccnc2)ccc1C#CCOC(=O)NCCN1CCN(C(C)C)CC1` (stereo not shown) [Compound 13], which IC50 is on record?
**A.** Its IC50 is 32 nM.

**Q.** Which IC50 does the source give for `CCOC(=O)c1nc(SC2CCCC2)n(-c2cccnc2)c1COc1ccc(C#CCO)c(C)c1` [Compound 24] here?
**A.** Its IC50 is 50 nM.

**Q.** With `Cc1cc(OCc2cnc(SC3CC3)n2-c2cccnc2)ccc1C#CCO` [Compound 17] as the molecule, how does the IC50 read?
**A.** The IC50 was 240 nM.

**Q.** For `[2H]C1([2H])C([2H])([2H])C([2H])([2H])C([2H])(Sc2ncc(COc3ccc(-c4ccc(S(C)(=O)=O)cc4)c(C)c3)n2-c2cccnc2)C1([2H])[2H]` [Compound 29], which IC50 is on record?
**A.** The IC50 was 75 nM.

**Q.** For `COCOCC#Cc1ccc(OCc2cnc(SC3C=CCCC3)n2-c2cccnc2)cc1C` (stereo not shown) [Compound 6], which IC50 is on record?
**A.** Its IC50 is 100 nM.

Tested on: not given
Experiment: not given
Details: not given

**Q.** For `Cc1cc(OCc2c(C(C)(C)O)nc(SC3CCCC3)n2-c2cccnc2)ccc1C#CCO` [Compound 28, 3-(4-((2-(Cyclopentylthio)-4-(2-hydroxypropan-2-yl)-1-(pyridin-3-yl)-1H-imidazol-5-yl)methoxy)-2-methylphenyl)prop-2-yn-1-ol], which melting point is on record?
**A.** The melting point was 119 to 121 °C.
